Structures are written as SMILES.

Series [1] is described as follows: Solubility of polymorphs of compound 1. Type of series: physicochemical. Conditions: compared to the other polymorphs.
The nature of series [2]: Bioavailability of polymorphs of compound 1. Type of series: in vivo. Conditions: compared to the other polymorphs.
The test system of series [3] is interstitial cystitis (IC). The series is described as follows: Example 8: patient with interstitial cystitis symptoms. It is filed as in vivo, human. The following applies: 1000 mg tablet orally twice daily for at least 2 months; present-tense example. The protocol:
A person complains of suffering symptoms associated with interstitial cystitis (IC), including gastrointestinal symptoms of diarrhea, bloating and pain. In an effort to alleviate these symptoms, a tablet containing 1000 mg of compound (1) (Form A) is administered orally to this patient twice daily for at least 2 months. […] Similar positive results are observed for other patients complaining of the same or similar symptoms attributable to IC.

Consider `CCCc1c(SCCCOc2ccc(C(C)=O)c(OCCCC(=O)O)c2CCC)ccc(C(C)=O)c1O` [Form A, 4-[6-acetyl-3-[3-(4-acetyl-3-hydroxy-2-propylphenylthio)propoxy]-2-propylphenoxy]butyric acid], for which, in series [1], the solubility result is reported as “superior”. Moreover, the bioavailability entry in series [2] was “superior”. In addition, the “symptoms of interstitial cystitis reported by patient” value in series [3] is “positive effects”.
